{"source": "patent US20200347043A1", "about": "“MODULATORS OF THE INTEGRATED STRESS PATHWAY” (Calico Life Sciences LLC, priority 2019, published 2020)"}
{"tested_on": "HEK293T cells carrying the ATF4 luciferase reporter", "test": "ATF4-Luc assay (in vitro model of VWMD)", "type": "cell-based, human", "settings": "Homo sapiens, HEK-293T, 1 μg/mL tunicamycin, 7 hours, One Glo luminescence", "method_in_brief": "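Tunicamycin (1 μg/mL) stress with co-added compound for 7 hours in HEK293T cells stably carrying an ATF4 5′-UTR–luciferase reporter. EC50 values come from the luminescent signal (One Glo).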", "units": {"EC50": "nM"}}
{"smiles": "O=C(NC12CCC(C(=O)NCc3ccc(C(F)(F)F)cn3)(CC1)CC2)[C@@H]1C[C@@H](O)c2cc(Cl)ccc2O1", "note": "[Compound 193, (2S,4R)-6-chloro-4-hydroxy-N-[4-({[5-(trifluoromethyl)pyridin-2-yl]methyl}carbamoyl)bicyclo[2.2.2]octan-1-yl]-3,4-dihydro-2H-1-benzopyran-2-carboxamide]", "EC50": "50 to 250"}
{"smiles": "O=C(CO[C@H]1C[C@@H](OC(F)(F)F)C1)NC12CCC(NC(=O)[C@H]3C[C@@H](O)c4cc(F)c(F)cc4O3)(CC1)CC2", "note": "[Compound 194, (2R,4R)-6,7-difluoro-4-hydroxy-N-[4-(2-{[cis-3-(trifluoromethoxy)cyclobutyl]oxy}acetamido)bicyclo[2.2.2]octan-1-yl]-3,4-dihydro-2H-1-benzopyran-2-carboxamide]", "EC50": "< 10"}
{"smiles": "O=C(CO[C@H]1C[C@@H](OC(F)(F)F)C1)NC12CCC(NC(=O)[C@H]3C[C@@H](O)c4cc(Cl)ccc4O3)(CC1)CC2", "note": "[Compound 195, (2R,4R)-6-chloro-4-hydroxy-N-[4-(2-{[cis-3-(trifluoromethoxy)cyclobutyl]oxy}acetamido)bicyclo[2.2.2]octan-1-yl]-3,4-dihydro-2H-1-benzopyran-2-carboxamide]", "EC50": "< 10"}
{"smiles": "O=C(CO[C@H]1C[C@@H](OC(F)(F)F)C1)NC12CCC(NC(=O)[C@H]3C[C@@H](O)c4cc(Cl)ccc4O3)(C1)C2", "note": "[Compound 196, (2R,4R)-6-chloro-4-hydroxy-N-[4-(2-{[cis-3-(trifluoromethoxy)cyclobutyl]oxy}acetamido)bicyclo[2.1.1]hexan-1-yl]-3,4-dihydro-2H-1-benzopyran-2-carboxamide]", "EC50": "10 to 50"}
{"smiles": "O=C(N[C@H]1CC[C@H](N2CCN(C3CC(OC(F)(F)F)C3)C2=O)CC1)[C@H]1C[C@@H](O)c2cc(Cl)ccc2O1", "note": "(stereo partly shown) [Compound 197]", "EC50": "> 2000"}
{"smiles": "O=C(N[C@H]1CC[C@H](C(=O)NCc2ccc(C(F)(F)F)cn2)CC1)[C@H]1C[C@H](O)c2cc(Cl)ccc2O1", "note": "[Compound 198, (2R,4S)-6-chloro-4-hydroxy-N-[trans-4-({[5-(trifluoromethyl)pyridin-2-yl]methyl}carbamoyl)cyclohexyl]-3,4-dihydro-2H-1-benzopyran-2-carboxamide]", "EC50": "250 to 500"}
{"smiles": "O=C(NC12CC(n3cnc(-c4ccc(C(F)(F)F)nc4)c3)(C1)C2)[C@H]1C[C@@H](O)c2cc(Cl)ccc2O1", "note": "[Compound 201, (2R,4R)-6-chloro-4-hydroxy-N-(3-{4-[6-(trifluoromethyl)pyridin-3-yl]-1H-imidazol-1-yl}bicyclo[1.1.1]pentan-1-yl)-3,4-dihydro-2H-1-benzopyran-2-carboxamide]", "EC50": "< 10"}
{"smiles": "O=C(NC12CCC(c3nnc([C@H]4C[C@@H](OC(F)(F)F)C4)o3)(CC1)CC2)[C@H]1C[C@@H](O)c2cc(Cl)ccc2O1", "note": "[Compound 203, (2R,4R)-6-chloro-4-hydroxy-N-(4-{5-[cis-3-(trifluoromethoxy)cyclobutyl]-1,3,4-oxadiazol-2-yl}bicyclo[2.2.2]octan-1-yl)-3,4-dihydro-2H-1-benzopyran-2-carboxamide]", "EC50": "< 10"}
{"smiles": "O=C(NC12CCC(c3nnc([C@H]4C[C@@H](OC(F)(F)F)C4)o3)(CC1)CC2)[C@@H]1C[C@H](O)c2cc(Cl)ccc2O1", "note": "[Compound 204, (2S,4S)-6-chloro-4-hydroxy-N-(4-{5-[cis-3-(trifluoromethoxy)cyclobutyl]-1,3,4-oxadiazol-2-yl}bicyclo[2.2.2]octan-1-yl)-3,4-dihydro-2H-1-benzopyran-2-carboxamide]", "EC50": "10 to 50"}
{"smiles": "O=C(NC12CCC(C(=O)N[C@H]3C[C@@H](OC(F)(F)F)C3)(CC1)OC2)[C@H]1C[C@@H](O)c2cc(Cl)ccc2O1", "note": "[Compound 205, (2R,4R)-6-chloro-4-hydroxy-N-(1-{[cis-3-(trifluoromethoxy)cyclobutyl]carbamoyl}-2-oxabicyclo[2.2.2]octan-4-yl)-3,4-dihydro-2H-1-benzopyran-2-carboxamide]", "EC50": "50 to 250"}
{"smiles": "O=C(NC12CCC(C(=O)N[C@H]3C[C@@H](OC(F)(F)F)C3)(CC1)OC2)[C@@H]1C[C@H](O)c2cc(Cl)ccc2O1", "note": "[Compound 206, (2S,4S)-6-chloro-4-hydroxy-N-(1-{[cis-3-(trifluoromethoxy)cyclobutyl]carbamoyl}-2-oxabicyclo[2.2.2]octan-4-yl)-3,4-dihydro-2H-1-benzopyran-2-carboxamide]", "EC50": "500 to 2000"}
{"smiles": "O=C(N[C@H]1CC[C@H](N2CCN(c3ccc(Cl)c(F)c3)C2=O)CC1)[C@H]1C[C@@H](O)c2cc(Cl)ccc2O1", "note": "[Compound 207, (2R,4R)-6-chloro-N-{trans-4-[3-(4-chloro-3-fluorophenyl)-2-oxoimidazolidin-1-yl]cyclohexyl}-4-hydroxy-3,4-dihydro-2H-1-benzopyran-2-carboxamide]", "EC50": "< 10"}
{"smiles": "O=C(CO[C@H]1C[C@@H](OC(F)(F)F)C1)NC12CC(NC(=O)[C@@H]3C[C@@H](O)c4cc(Cl)ccc4O3)(C1)C2", "note": "[Compound 208, (2S,4R)-6-chloro-4-hydroxy-N-[3-(2-{[cis-3-(trifluoromethoxy)cyclobutyl]oxy}acetamido)bicyclo[1.1.1]pentan-1-yl]-3,4-dihydro-2H-1-benzopyran-2-carboxamide]", "EC50": "< 10"}
{"smiles": "O=C(NC12CC(n3cc(-c4ccc(Cl)cc4)cn3)(C1)C2)[C@H]1C[C@@H](O)c2cc(Cl)ccc2O1", "note": "[Compound 212, (2R,4R)-6-chloro-N-{3-[4-(4-chlorophenyl)-1H-pyrazol-1-yl]bicyclo[1.1.1]pentan-1-yl}-4-hydroxy-3,4-dihydro-2H-1-benzopyran-2-carboxamide]", "EC50": "< 10"}
{"smiles": "O=C(CO[C@H]1C[C@@H](OC(F)(F)F)C1)N[C@H]1CC[C@H](NC(=O)[C@H]2CC(=O)c3cc(Cl)ccc3O2)CC1", "note": "[Compound 213, (2R)-6-chloro-4-oxo-N-[trans-4-(2-{[cis-3-(trifluoromethoxy)cyclobutyl]oxy}acetamido)cyclohexyl]-3,4-dihydro-2H-1-benzopyran-2-carboxamide]", "EC50": "50 to 250"}
{"smiles": "O=C(CO[C@H]1C[C@@H](OC(F)(F)F)C1)N[C@H]1CC[C@H](NC(=O)[C@H]2C[C@@H](O)c3cc(Cl)ccc3O2)CC1", "note": "[Compound 214, (2R,4R)-6-chloro-4-hydroxy-N-[trans-4-(2-{[cis-3-(trifluoromethoxy)cyclobutyl]oxy}acetamido)cyclohexyl]-3,4-dihydro-2H-1-benzopyran-2-carboxamide]", "EC50": "10 to 50"}
{"smiles": "O=C(N[C@H]1CC[C@H](C(=O)N[C@H]2C[C@@H](OC(F)(F)F)C2)CC1)[C@H]1C[C@@H](O)c2cc(Cl)ccc2O1", "note": "[Compound 215, (2R,4R)-6-chloro-4-hydroxy-N-[trans-4-{[cis-3-(trifluoromethoxy)cyclobutyl]carbamoyl}cyclohexyl]-3,4-dihydro-2H-1-benzopyran-2-carboxamide]", "EC50": "< 10"}
{"smiles": "O=C1C[C@H](C(=O)NC23CC(C(=O)N[C@H]4C[C@@H](OC(F)(F)F)C4)(C2)C3)Oc2ccc(Cl)cc21", "note": "[Compound 216, (2R)-6-chloro-4-oxo-N-(3-{[cis-3-(trifluoromethoxy)cyclobutyl]carbamoyl}bicyclo[1.1.1]pentan-1-yl)-3,4-dihydro-2H-1-benzopyran-2-carboxamide]", "EC50": "> 2000"}
{"smiles": "O=C(NC12CC(c3nc([C@H]4C[C@@H](OC(F)(F)F)C4)no3)(C1)C2)[C@@H]1C[C@@H](O)c2cc(Cl)ccc2O1", "note": "[Compound 217, (2S,4R)-6-chloro-4-hydroxy-N-(3-{3-[cis-3-(trifluoromethoxy)cyclobutyl]-1,2,4-oxadiazol-5-yl}bicyclo[1.1.1]pentan-1-yl)-3,4-dihydro-2H-1-benzopyran-2-carboxamide]", "EC50": "50 to 250"}
{"smiles": "O=C(NC12CC(c3nc([C@H]4C[C@@H](OC(F)(F)F)C4)no3)(C1)C2)[C@@H]1C[C@H](O)c2cc(Cl)ccc2O1", "note": "[Compound 218, (2S,4S)-6-chloro-4-hydroxy-N-(3-{3-[cis-3-(trifluoromethoxy)cyclobutyl]-1,2,4-oxadiazol-5-yl}bicyclo[1.1.1]pentan-1-yl)-3,4-dihydro-2H-1-benzopyran-2-carboxamide]", "EC50": "500 to 2000"}
{"smiles": "O=C(CO[C@H]1C[C@@H](OC(F)(F)F)C1)NC12CCC(NC(=O)[C@H]3C[C@@H](O)c4cc(Cl)ccc4O3)(CC1)[C@@H](O)C2", "note": "[Compound 220, (2R,4R)-6-chloro-4-hydroxy-N-[(2S)-2-hydroxy-4-(2-{[cis-3-(trifluoromethoxy)cyclobutyl]oxy}acetamido)bicyclo[2.2.2]octan-1-yl]-3,4-dihydro-2H-1-benzopyran-2-carboxamide]", "EC50": "< 10"}
{"smiles": "O=C1C[C@H](C(=O)NC23CCC(C(=O)N[C@H]4C[C@@H](OC(F)(F)F)C4)(CC2)CC3)Oc2ccc(Cl)cc21", "note": "[Compound 221, (2R)-6-chloro-4-oxo-N-(4-{[cis-3-(trifluoromethoxy)cyclobutyl]carbamoyl}bicyclo[2.2.2]octan-1-yl)-3,4-dihydro-2H-1-benzopyran-2-carboxamide]", "EC50": "50 to 250"}
{"smiles": "O=C(NC12CCC(C(=O)N[C@H]3C[C@@H](OC(F)(F)F)C3)(CC1)CC2)[C@H]1C[C@@H](O)c2cc(Cl)ccc2O1", "note": "[Compound 222, (2R,4R)-6-chloro-4-hydroxy-N-(4-{[cis-3-(trifluoromethoxy)cyclobutyl]carbamoyl}bicyclo[2.2.2]octan-1-yl)-3,4-dihydro-2H-1-benzopyran-2-carboxamide]", "EC50": "10 to 50"}
{"smiles": "O=C(CO[C@H]1C[C@@H](OC(F)(F)F)C1)NC12CCC(NC(=O)[C@H]3CC(=O)c4cc(Cl)ccc4O3)(CC1)[C@@H](O)C2", "note": "[Compound 223, (2R)-6-chloro-N-[(2S)-2-hydroxy-4-(2-{[cis-3-(trifluoromethoxy)cyclobutyl]oxy}acetamido)bicyclo[2.2.2]octan-1-yl]-4-oxo-3,4-dihydro-2H-1-benzopyran-2-carboxamide]", "EC50": "10 to 50"}
{"smiles": "O=C1C[C@H](C(=O)NC23CC(N4CCC(c5ccc(Cl)cc5)C4=O)(C2)C3)Oc2ccc(Cl)cc21", "note": "(stereo partly drawn) [Compound 224, (2R)-6-chloro-N-{3-[3-(4-chlorophenyl)-2-oxopyrrolidin-1-yl]bicyclo[1.1.1]pentan-1-yl}-4-oxo-3,4-dihydro-2H-1-benzopyran-2-carboxamide]", "EC50": "> 2000"}
